Like-named read-outs stand apart in the source and are kept apart here.
Columns and labels:
experimental tumors [1] = conditions: various kinds of tumors; cited from earlier work
[2] = patients; cited from earlier work
Leukemia L-1210 cells = experiment: Antitumor activity on leukemia in CDF1 mice caused by Leukemia L-1210 cells (Test 1); conditions: for sign of toxicity: 2.5-5 mg/kg/day, in words
Experimental: Antitumor activity on Leukemia in CDF1 mice caused by Leukemia L-1210 cells
In this test, Compounds of formula (m) were assessed in comparison with daunomycin and adriamycin on their tumor inhibitory activity against leukemia in mice Thus, CDF1 mice were intraperitoneally transplanted with cells of Leukemia L-1210 (1×10^5 cells/mouse). From 24 hours after i.p. transplantation of L-1210 cells, each compound to be tested was administered intraperitoneally for 9 consecutive days at once per day. Observation was made for 60 days where survival days of each mouse tested were recorded, and percentage increase in life-span of the treated mice, in comparison with control test wherein mice were treated only with the administration of physiological saline, was calculated as T/C %, where T is the mean survival days of the treated animals and C is the mean survival days of the untreated control animals.

Leukemia P 388 = conditions: cited from earlier work
Leukemia L-1210 = conditions: 25 mg/kg, single dose per day, intraperitoneally for 9 days; cited from earlier work
some species of bacteria = experiment: Antibacterial activity; type: cell-based; conditions: for antibacterial activity compared with phenol: some species of bacteria; for antibacterial activity: in words
[3] = system: Salmonella paratyphi 1015; experiment: MIC by standard serial dilution method; type: cell-based; conditions: Salmonella enterica
Description: (§1) Minimum inhibitory concentrations (MIC., mcg/ml) of the new compounds of formulae (h) and (i) against the growth of some species of bacteria have been determined according to a standard serial dilution method.

[4] = system: Micrococcus luteus ATCC 9341; experiment: MIC by standard serial dilution method; type: cell-based; conditions: ATCC9341; Micrococcus luteus ATCC 9341 (MS-1)
Description: as §1

[5] = system: Corynebacterium bovis 1810; experiment: MIC by standard serial dilution method; type: cell-based
Description: as §1

experimental tumors [6] = experiment: Animal tests on experimental tumors; type: in vivo; conditions: in words
[7] = Stability of glycoside linkage against acid hydrolysis (Test 2); type: physicochemical; conditions: for acid hydrolysis, TLC result: 61°-62° C.; for acid hydrolysis: 60° C.; for stability of glycoside linkage against hydrolysis by acid: in words, no conditions
Experimental: Daunomycin (1 mg) was dissolved in a mixture of (0.1 ml) of 0.2N*HCl-80% CH3 CN-H2 O (*the concentration of HCl being 0.2N in the whole mixture) and the solution was heated in oil bath at 61°-62° C. for 30 minutes to cause the hydrolysis. […] The reaction solution was allowed to stand at room temperature to deposit daunomycinone as red crystals.
FTDM (0.7 mg) was suspended in a mixture (0.1 ml) of 0.2N HCl-80% CH3 CN-H2 O and suspension was stirred in an oil bath at 61°-62° C. for 30 minutes.

[8] = in vivo; cited from earlier work
[9] = 0.15 mg/kg/day, i.p., once per day for 9 days, 60 days observation
[10] = 0.3 mg/kg/day, i.p., once per day for 9 days, 60 days observation
[11] = 0.6 mg/kg/day, i.p., once per day for 9 days, 60 days observation
[12] = 1.25 mg/kg/day, i.p., once per day for 9 days, 60 days observation
[13] = 2.5 mg/kg/day, i.p., once per day for 9 days, 60 days observation
[14] = 5 mg/kg/day, i.p., once per day for 9 days, 60 days observation
[15] = 0.2N HCl-80% CH3 CN-H2 O, 30 minutes

COc1cccc2c1C(=O)c1c(O)c3c(c(O)c1C2=O)C[C@@](O)(C(=O)CO)C[C@@H]3O[C@H]1C[C@H](N)[C@H](O)[C@H](C)O1 [Adriamycin, reference compound]
antitumor activity (experimental tumors [1]): fairly high antitumor activity against various kinds of tumors | cardiac toxicity [2]: cardiac toxicity | decrease in the number of leukocytes [2]: decrease in the number of leukocytes | falling-off of the hair [2]: falling-off of the hair | % Increase in life-span (T/C) (Leukemia L-1210 cells; [9]): 123% | % Increase in life-span (T/C) (Leukemia L-1210 cells; [10]): 136% | % Increase in life-span (T/C) (Leukemia L-1210 cells; [11]): 142% | % Increase in life-span (T/C) (Leukemia L-1210 cells; [12]): 222% | % Increase in life-span (T/C) (Leukemia L-1210 cells; [13]): 228% | % Increase in life-span (T/C) (Leukemia L-1210 cells; [14]): 191% | sign of toxicity (Leukemia L-1210 cells): appearance of toxicity

COc1cccc2c1C(=O)c1c(O)c3c(c(O)c1C2=O)C[C@@](O)(C(C)=O)C[C@@H]3O[C@@H]1O[C@@H](C)[C@@H](OC(C)=O)[C@@H](OC(C)=O)[C@H]1I [Compound NSC 327,472, 7-O-(3,4-di-O-acetyl-2,6-dideoxy-2-iodo-α-L-talohexopyranosyl)daunomycinone]
increase (%) of survival days (Leukemia P 388; 12.5 mg/kg to 25 mg/kg): 172% | increase (%) of survival days (Leukemia P 388; 150 mg/kg): 162%

COc1cccc2c1C(=O)c1c(O)c3c(c(O)c1C2=O)C[C@@](O)(C(C)=O)C[C@@H]3O[C@@H]1O[C@@H](C)[C@H](OC(C)=O)[C@@H](OC(C)=O)[C@H]1I [Compound NSC 331,962, 7-O-(3,4-di-O-acetyl-2,6-dideoxy-2-iodo-α-L-manno-hexopyranosyl)daunomycinone]
increase (in %) of survival days (T/C, %) (Leukemia P 388; 50 mg/kg): 247% | increase (in %) of survival days (T/C, %) (Leukemia L-1210): 196%

CO[C@@H]1O[C@@H](C)[C@@H](O)[C@@H](O)[C@H]1F [Compound of formula (h), methyl 2,6-dideoxy-2-fluoro-α-L-talopyranoside]
antibacterial activity compared with phenol (some species of bacteria): higher antibacterial activity against some species of bacteria than that of phenol | MIC [3]: 100 µg/mL | MIC [4]: 100 µg/mL

C[C@@H]1OC(O)[C@H](F)[C@H](O)[C@@H]1O (stereo partly drawn) [Compound of formula (i), 2,6-dideoxy-2-fluoro-α,β-L-talopyranose]
antibacterial activity (some species of bacteria): shows antibacterial activity | antibacterial activity compared with phenol (some species of bacteria): higher antibacterial activity against some species of bacteria than that of phenol | MIC [5]: 100 µg/mL | MIC [3]: 100 µg/mL

COc1cccc2c1C(=O)c1c(O)c3c(c(O)c1C2=O)C[C@@](O)(C(C)=O)C[C@@H]3O[C@@H]1O[C@@H](C)[C@@H](O)[C@@H](O)[C@H]1F [Compound of formula (k), 7-O-(2,6-dideoxy-2-fluoro-α-L-talopyranosyl)daunomycinone]
antibacterial activity (some species of bacteria): high antibacterial activities | sign of toxicity (Leukemia L-1210 cells): no sign of toxicity | % Increase in life-span (T/C) (Leukemia L-1210 cells; ip, 0.15 mg/kg): 105% | % Increase in life-span (T/C) (Leukemia L-1210 cells; ip, 0.3 mg/kg): 105% | % Increase in life-span (T/C) (Leukemia L-1210 cells; ip, 0.6 mg/kg): 125% | % Increase in life-span (T/C) (Leukemia L-1210 cells; ip, 1.25 mg/kg): 171% | % Increase in life-span (T/C) (Leukemia L-1210 cells; ip, 2.5 mg/kg): 217% | % Increase in life-span (T/C) (Leukemia L-1210 cells; ip, 5 mg/kg): 184% | antitumor activity (experimental tumors [6]): excellent antitumor activities | toxicity (experimental tumors [6]): low toxicities | acid hydrolysis, TLC result [7, 15]: presence of the spot of FTDM only | acid hydrolysis, TLC result ([7]; 0.2N HCl-80% CH3 CN-H2 O, further 3 hours): the spot of FTDM only | acid hydrolysis ([7]; 1N HCl in acetonitrile-water (4:1), 8 hours): remains substantially as it is, without being decomposed | acid hydrolysis, TLC result ([7]; 1N HCl overall, 8 hours): a spot of a trace amount of daumonycinone appeared, but most of FTDM was remaining at it was | stability of glycoside linkage against hydrolysis by acid [7]: high stability against hydrolysis by acid

COc1cccc2c1C(=O)c1c(O)c3c(c(O)c1C2=O)C[C@@](O)(C(=O)CO)C[C@@H]3O[C@@H]1O[C@@H](C)[C@@H](O)[C@@H](O)[C@H]1F [Compound of formula (l), 7-O-(2,6-dideoxy-2-fluoro-α-L-talopyranosyl)adriamycinone]
antibacterial activity (some species of bacteria): high antibacterial activities | sign of toxicity (Leukemia L-1210 cells): no sign of toxicity | % Increase in life-span (T/C) (Leukemia L-1210 cells; ip, 0.15 mg/kg): 127% | % Increase in life-span (T/C) (Leukemia L-1210 cells; ip, 0.3 mg/kg): 182% | % Increase in life-span (T/C) (Leukemia L-1210 cells; ip, 0.6 mg/kg): 185% | % Increase in life-span (T/C) (Leukemia L-1210 cells; ip, 1.25 mg/kg): 275% | % Increase in life-span (T/C) (Leukemia L-1210 cells; ip, 2.5 mg/kg): > 352% | % Increase in life-span (T/C) (Leukemia L-1210 cells; ip, 5 mg/kg): > 740% | antitumor activity (experimental tumors [6]): excellent antitumor activities | toxicity (experimental tumors [6]): low toxicities | stability of glycoside linkage against hydrolysis by acid [7]: high stability against hydrolysis by acid

COc1cccc2c1C(=O)c1c(O)c3c(c(O)c1C2=O)C[C@@](O)(C(C)=O)C[C@@H]3O[C@H]1C[C@H](N)[C@H](O)[C@H](C)O1 [Daunomycin, reference compound]
antitumor activity (experimental tumors [1]): fairly high antitumor activity against various kinds of tumors | % Increase in life-span (T/C) (Leukemia L-1210 cells; [9]): 132% | % Increase in life-span (T/C) (Leukemia L-1210 cells; [10]): 112% | % Increase in life-span (T/C) (Leukemia L-1210 cells; [11]): 145% | % Increase in life-span (T/C) (Leukemia L-1210 cells; [12]): 158% | % Increase in life-span (T/C) (Leukemia L-1210 cells; [13]): 171% | % Increase in life-span (T/C) (Leukemia L-1210 cells; [14]): 138% | acid hydrolysis ([7]; 0.2N HCl in acetonitrile-water (4:1), 30 minutes): completely decomposed | acid hydrolysis, TLC result [7, 15]: disappearance of the spot of daunomycin

COc1cccc2c1C(=O)c1c(O)c3c(c(O)c1C2=O)C[C@@](O)(C(=O)CO)C[C@@H]3O [adriamycinone]
cardiac toxicity compared with daunomycin or adriamycin [8]: higher cardiac toxicity than the daunomycin or adriamycin itself

COc1cccc2c1C(=O)c1c(O)c3c(c(O)c1C2=O)C[C@@](O)(C(C)=O)C[C@@H]3O [daunomycinone]
cardiac toxicity compared with daunomycin or adriamycin [8]: higher cardiac toxicity than the daunomycin or adriamycin itself
